Common to all, as to assay: NCI tumour cell line growth inhibition, 48 h
In assay [1] the test system is RXF 631.
Assay [2] concerns SNB-78.
Assay [3] deals with DMS-273.
For assay [4], the system named is HOP-18.
The test system of assay [5] is XF498.
Assay [6] relates to DLD-1.
The test system of assay [7] is DU-145.
In assay [8] the test system is T47D.
In assay [9] the test system is Hs-578T.

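Exposure lasted 48 hours, with cells grown in 96-well plates and compounds tested at five concentrations. At the GI50, growth is halved.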 Activity calls are given as the source filed them. No stated cut-off is given here; in the data, active = GI50 up to about 1.1 µM and inactive = higher. A value given as a limit tells only on which side of the number the result lay.

For `COc1ccc(C2N(NC(=O)c3ccncc3)C(=O)CS2(=O)=O)cc1F` (stereo unspecified), the GI50 in [1], in assay [2], in assay [3], in [4], in assay [5] and in assay [6] was > 100 µM (inactive) throughout.
In the case of `Cc1nnc(Nc2ccc(Cl)cc2)o1`, the GI50 in assay [7], in assay [8] and in assay [9] was > 10 µM (inactive) each time.
Take `Cc1ccc(NC(=S)NNC(=O)c2cc(-c3ccccc3)nc3ccccc23)cc1C`: the figures for the GI50 in assay [7], in [8] and in [9] were 22.4 µM (inactive), 0.853 µM (active) and 36.1 µM (inactive), respectively.
For `CC1[C@@H]2CC=C3C4CCC5Cc6nc7c(nc6C[C@@]5(C)C4CC(=O)[C@]32CO[C@@]1(O)C(O)CC(C)(C)O)CC1CCC2C3=C[C@H]4O[C@@]5(O[C@@](C)(CO)C[C@@H]5O)C(C)[C@@]4(O)[C@]3(C)[C@@H](O)CC2[C@]1(C)C7` (stereo partly specified), the GI50 was 0.00146 µM (active) in [2]; < 0.00036 µM (active) in assay [3]; 0.269 µM (active) in assay [4]; 0.00242 µM (active) in assay [5]; 0.111 µM (active) in assay [6].
On to `CC(C)(C)C(=O)OCC1C(=O)OCC1C(=O)N1Cc2cc3ccccc3nc2C1` (stereo unspecified), for which the GI50 in [7] was 16.4 µM (inactive); in assay [2], 1.53 µM (inactive); in assay [8], 2.38 µM (inactive); in [3] it was 3.04 µM (inactive); in assay [4], 2.61 µM (inactive); in assay [9], 15.3 µM (inactive). In addition, the GI50 in [6] is 1.55 µM (inactive).
For the compound `COc1cc(C2C(=O)C(Cl)N2Nc2nc(C)cc(O)n2)cc(OC)c1OC` (stereo unspecified), the GI50 in [2] is 12.4 µM (inactive); in [3], 10.4 µM (inactive); in [4] it was 2.67 µM (inactive).
Consider `Cc1ccc(CCC(=O)C(=O)O)s1`, for which the GI50 in [1], in assay [2], in assay [3], in [4] and in [5] was > 100 µM (inactive) throughout.
Turning to `O=C(NC1C/C(=N/O)c2c(Br)sc(Br)c21)C(F)(F)F` (stereo unspecified), the GI50 in assay [7] was 27.5 µM (inactive); in assay [8] it was 20.7 µM (inactive); in [9] it was 11.2 µM (inactive).
As to `CC(=O)N/C(=C\c1ccc(Cc2nc3c([nH]2)C(=O)c2ccccc2C3=O)cc1)c1nc2c([nH]1)C(=O)c1ccccc1C2=O`, the GI50 in assay [6] is > 100 µM (inactive).
As to `CO[C@H]1C=C[C@@]23c4cc5c(cc4CO[C@]2(O)CN(C)[C@H]3C1)OCO5`, the GI50 in assay [7], in [8] and in assay [9] was > 100 µM (inactive) in each case.
`CCCS(=O)(=O)O`: the GI50 in assay [7], in assay [8] and in [9] was > 100 µM (inactive) each time.
Consider `O=C(O)c1ccc(NS(=O)(=O)Cc2ccccc2)cc1`, for which the GI50 in assay [7], in assay [8] and in assay [9] was > 100 µM (inactive) each time.
As to `COc1cc2ccc(CC(N)=O)cc2cc1OC`, the GI50 in [1], in assay [2], in assay [3], in assay [4] and in assay [5] was > 100 µM (inactive) each time.
As to `O=c1ccc2cc3ccc4cccc5ccc(c2o1)c3c45`, the GI50 in assay [1] is 80 µM (inactive); in assay [2], > 100 µM (inactive); in assay [4], 5.7 µM (inactive); in assay [5], 12 µM (inactive); in assay [6], > 100 µM (inactive).
For the compound `CCCCC1(N=[N+]=[N-])C(=O)c2cccc3c2N(CCC3)C1=O` (stereo unspecified), the GI50 in assay [7], in [8] and in assay [9] was > 100 µM (inactive) each time.
For the compound `O=C(O)c1cc(-c2ccc3cc4c(cc3c2)OCO4)nc2ccccc12`, the GI50 in assay [7] was 63.4 µM (inactive); in assay [8] it was 54.8 µM (inactive); in assay [9] it was 49.2 µM (inactive).
In the case of `Cc1[nH]c2ncn(/N=C/c3ccccc3O)c(=N)c2c1Cc1ccccc1`, the GI50 was > 100 µM (inactive) in [7], > 100 µM (inactive) in assay [8] and 96.2 µM (inactive) in assay [9].
Consider `O=C1C=CC=C/C1=C1/SC(c2ccccc2)=C(O)N1c1ccccc1`, for which the GI50 in assay [2] and in [3] was > 100 µM (inactive) in each case.
Consider `CC(SC(=S)N1CCOCC1)C(=O)Nc1nnc(-c2ccc(Cl)cc2)o1` (stereo unspecified), for which the results for the GI50 in [7], in [8] and in [9] were 79.6 µM (inactive), 51.3 µM (inactive) and > 100 µM (inactive), respectively.
In the case of `CC(=O)[C@H]1CCC2[C@@H]3CC=C4C(O)C(OS(=O)(=O)O)CC[C@]4(C)C3CC[C@@]21C` (stereo partly specified), the GI50 in assay [2], in [3], in assay [4] and in assay [6] was > 100 µM (inactive) in each case.
For the compound `NC1CCCCC1`, the GI50 in assay [2] is 292 µM (inactive); in [3], 189 µM (inactive); in [4], < 0.0562 µM (active); in [6] it was 200 µM (inactive).
For `Clc1ccc(-c2nnc(-c3nsc4ccccc34)o2)cc1`, the GI50 in assay [2] is 46.2 µM (inactive); in assay [3], 26.6 µM (inactive).
Consider `COc1ccc(/C=N/n2c(C)nc3c(sc(=S)n3-c3ccccc3)c2=O)cc1`, for which the GI50 in assay [4] and in [6] was > 100 µM (inactive) throughout.
Consider `O=C(N/N=C/C=C/c1ccccc1)[C@H](O)[C@@H](O)C(=O)N/N=C/C=C/c1ccccc1`, for which the GI50 in assay [2], in [3] and in [6] was > 100 µM (inactive) in each case.
Consider `O=C1CC(CC(OCc2ccccc2)C(COCc2ccccc2)OCc2ccccc2)CC(=O)N1` (stereo unspecified), for which the GI50 was 69.3 µM (inactive) in assay [7], 27.9 µM (inactive) in assay [8] and 44.2 µM (inactive) in [9].
The corresponding values for `COc1ccccc1C(=O)NCC1CCCN2CCCCC12` (stereo unspecified) are > 100 µM (inactive), > 100 µM (inactive) and > 100 µM (inactive).
Consider `O=C1CN2C(Cl)(Cl)C2(c2ccccc2)c2cc(Cl)ccc2N1CC1CC1` (stereo unspecified), for which the results for the GI50 in [3], in [4] and in assay [6] were 25.5 µM (inactive), 23.8 µM (inactive) and 16.9 µM (inactive), respectively.
For the compound `CC1(C)N=C(Oc2ccccc2)n2nccc2N1`, the GI50 in assay [3] was 66.7 µM (inactive); in assay [4], > 100 µM (inactive); in [5] it was > 100 µM (inactive); in [6], > 100 µM (inactive).
As to `CC1C(=O)N(c2ccccc2)NC12CCCc1ccccc12` (stereo unspecified), the GI50 in assay [7], in [8] and in [9] was > 100 µM (inactive) each time.
For the compound `CCN(CC)C(=O)c1cc(OC(C)C)ccc1-c1c(C)cc(OC(C)C)c(OC)c1OC`, the GI50 in assay [3] was 41.6 µM (inactive); in assay [5], 25.8 µM (inactive); in assay [6], 40.3 µM (inactive).
For the compound `CCN1CCC(O)(/C=C/c2ccc(C)cc2)C(C(=O)/C=C/c2ccc(C)cc2)C1` (stereo unspecified), the GI50 in assay [7] is 11.8 µM (inactive); in [8] it was 2.82 µM (inactive); in assay [9] it was 1.86 µM (inactive).
As for `COC1OC(CS(=O)(=O)O)C(O)C(O)C1O` (stereo unspecified), the GI50 in [7], in assay [8] and in assay [9] was > 100 µM (inactive) throughout.
For the compound `COc1ccc(C(CC(=O)c2ccc(O)cc2)C(C(=O)c2ccc(O)cc2)C(c2ccc(OC)cc2)C2C(=O)NC(=S)NC2=O)cc1` (stereo unspecified), the results for the GI50 in assay [7] and in assay [9] were 14.9 µM (inactive) and 26.7 µM (inactive), respectively.
With `COc1cc([C@@H]2c3cc4c(cc3[C@@H](c3c(O)cc(O)c5c3O[C@H](c3ccc(O)c(O)c3)[C@@H](O)C5)[C@H]3COC(=O)[C@H]23)OCO4)cc(OC)c1O`, the GI50 in assay [7], in assay [8] and in assay [9] was > 100 µM (inactive) throughout.
Regarding `NC(Cc1c[nH]c2ccccc12)C(=O)O` (stereo not drawn) [DL-TRYPTOPHAN], the GI50 in [2] is > 300 µM (inactive); in [3] it was > 300 µM (inactive); in assay [4] it was 54.1 µM (inactive); in assay [6], > 300 µM (inactive).
Regarding `O=C1CCC(c2ccccc2)=NN1c1nsc2ccccc12`, the GI50 is > 100 µM (inactive) in assay [2], 95.9 µM (inactive) in assay [3] and 19.6 µM (inactive) in assay [4].

For the origin of these results see ChEMBL document CHEMBL1201862, “PubChem BioAssay data set” (2004).
